According to US20020052295A1, “Diacyl derivatives of propylene diamine having herbicidal activity” (priority 1999, published 2002):

Columns and labels:
SORHA [1] = experiment: Post-emergence herbicidal activity on SORHA (johnsongrass, seedling); type: in vivo, Sorghum halepense; conditions: post-emergence spray; lowest tested rate with 80% or greater inhibition; about 14 days after treatment
From the text: (§1) All such uses, and the biological activity enabling such uses, are embraced by the term “herbicidal” herein. Tables 15 and 16 summarize results of tests conducted as described below to determine the pre-emergence herbicidal activity, in the form of a GR80 value, of illustrative compounds of this invention. […] Where herbicidal activity was evident but 80% inhibition was not achieved at the highest rate tested (typically 1000 g/ha), an asterisk (*) is shown in the following tables. Herbicidal activity evident in the form of symptoms of phytotoxicity, in the absence of at least 80% inhibition at any rate, is indicated in the tables by “phyto”. A blank cell in the following tables indicates no herbicidal or phytotoxic response at any rate tested.
(§2) In another set of tests, the post-emergence activity of compounds of this invention was evaluated on the cool season species listed above. The following procedure was used.
(§3) A pre-prepared topsoil mixture (described above) was placed in a pot and compacted to a depth of 1.0 to 1.25 cm from the top of the pot. Seeds of each of several monocotyledonous and dicotyledonous annual plant species were placed on top of the soil The seeds were covered with a mixture of 50% topsoil and 50% Rediearth™ in sufficient quantity to level-fill the pots. The pots were then placed on a greenhouse bench and subirrigated as needed until plants growing from the seeds had emerged and reached a suitable growth stage for post-emergence treatment, typically 9 to 14 days after planting.
(§4) A known amount of each test compound dissolved or suspended in an appropriate organic solvent was diluted with a 50:50 mix of acetone and water and applied to the plants by spraying with a standard spray nozzle in a spray volume of 3,100 l/ha at a spray pressure of […] (30 psig). Control plants were not sprayed.
(§5) After treatment the plants were placed in a greenhouse with a 30/21° C. day/night temperature regime and were subsequently watered as needed for growth. Approximately 14 days after treatment, the plants were observed and herbicidal efficacy recorded as percent inhibition by comparison with control plants.

SETFA [2] = experiment: Post-emergence herbicidal activity on SETFA (giant foxtail); type: in vivo, Setaria faberi; conditions: post-emergence spray; lowest tested rate with 80% or greater inhibition; about 14 days after treatment
From the text: as §1, §2, §3, §4, §5

DATST [3] = experiment: Post-emergence herbicidal activity on DATST (jimsonweed); type: in vivo, Datura stramonium; conditions: post-emergence spray; lowest tested rate with 80% or greater inhibition; about 14 days after treatment
From the text: as §1, §2, §3, §4, §5

CIRAR [4] = experiment: Post-emergence herbicidal activity on CIRAR (canada thistle, seedling); type: in vivo, Cirsium arvense; conditions: post-emergence spray; lowest tested rate with 80% or greater inhibition; about 14 days after treatment
From the text: as §1, §2, §3, §4, §5

ABUTH [5] = experiment: Post-emergence herbicidal activity on ABUTH (velvetleaf); type: in vivo, Abutilon theophrasti; conditions: post-emergence spray; lowest tested rate with 80% or greater inhibition; about 14 days after treatment
From the text: as §1, §2, §3, §4, §5

PANDI [6] = experiment: Pre-emergence herbicidal activity on PANDI (fall panicum); type: in vivo, Panicum dichotomiflorum; conditions: lowest tested rate giving 80% or greater inhibition, approx. 14 days after planting and treating, greenhouse
How it was run: (§6)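 Seeds sown on sterilized fertilized topsoil in pots, covered to level, then compound in 50:50 acetone/water sprayed on soil surface. Greenhouse 30/21 °C day/night, 0.64 cm overhead irrigation, then mist/subirrigation. Percent inhibition vs untreated plants scored ~14 days after treatment; GR80 derived, highest rate typically 1000 g/ha.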

ECHCG [7] = experiment: Post-emergence herbicidal activity on ECHCG (barnyardgrass); type: in vivo, Echinochloa crus-galli; conditions: post-emergence spray; lowest tested rate with 80% or greater inhibition; about 14 days after treatment
From the text: as §1, §2, §3, §4, §5

PANDI [8] = experiment: Post-emergence herbicidal activity on PANDI (fall panicum); type: in vivo, Panicum dichotomiflorum; conditions: post-emergence spray; lowest tested rate with 80% or greater inhibition; about 14 days after treatment
From the text: as §1, §2, §3, §4, §5

BRAPP [9] = experiment: Post-emergence herbicidal activity on BRAPP (broadleaf signalgrass); type: in vivo, Brachiaria platyphylla; conditions: post-emergence spray; lowest tested rate with 80% or greater inhibition; about 14 days after treatment
From the text: as §1, §2, §3, §4, §5

CIRAR [10] = experiment: Pre-emergence herbicidal activity on CIRAR (canada thistle, seedling); type: in vivo, Cirsium arvense; conditions: lowest tested rate giving 80% or greater inhibition, approx. 14 days after planting and treating, greenhouse
How it was run: as §6

POROL [11] = experiment: Post-emergence herbicidal activity on POROL (common purslane; table head prints PORAL); type: in vivo, Portulaca oleracea; conditions: post-emergence spray; lowest tested rate with 80% or greater inhibition; about 14 days after treatment
From the text: as §1, §2, §3, §4, §5

DIGSA [12] = experiment: Pre-emergence herbicidal activity on DIGSA (large crabgrass); type: in vivo, Digitaria sanguinalis; conditions: lowest tested rate giving 80% or greater inhibition, approx. 14 days after planting and treating, greenhouse
How it was run: as §6

DIGSA [13] = experiment: Post-emergence herbicidal activity on DIGSA (large crabgrass); type: in vivo, Digitaria sanguinalis; conditions: post-emergence spray; lowest tested rate with 80% or greater inhibition; about 14 days after treatment
CHEAL [14] = experiment: Pre-emergence herbicidal activity on CHEAL (common lambsquarters); type: in vivo, Chenopodium album; conditions: lowest tested rate giving 80% or greater inhibition, approx. 14 days after planting and treating, greenhouse
How it was run: as §6

SORVU = experiment: Post-emergence herbicidal activity on SORVU (shattercane); type: in vivo, Sorghum vulgare; conditions: post-emergence spray; lowest tested rate with 80% or greater inhibition; about 14 days after treatment
From the text: as §1, §2, §3, §4, §5

DATST [15] = experiment: Pre-emergence herbicidal activity on DATST (jimsonweed); type: in vivo, Datura stramonium; conditions: lowest tested rate giving 80% or greater inhibition, approx. 14 days after planting and treating, greenhouse
How it was run: as §6

BRAPP [16] = experiment: Pre-emergence herbicidal activity on BRAPP (broadleaf signalgrass); type: in vivo, Brachiaria platyphylla; conditions: lowest tested rate giving 80% or greater inhibition, approx. 14 days after planting and treating, greenhouse
How it was run: as §6

SOLNI [17] = experiment: Post-emergence herbicidal activity on SOLNI (black nightshade); type: in vivo, Solanum nigrum; conditions: post-emergence spray; lowest tested rate with 80% or greater inhibition; about 14 days after treatment
From the text: as §1, §2, §3, §4, §5

SETFA [18] = experiment: Pre-emergence herbicidal activity on SETFA (giant foxtail); type: in vivo, Setaria faberi; conditions: lowest tested rate giving 80% or greater inhibition, approx. 14 days after planting and treating, greenhouse
How it was run: as §6

POROL [19] = experiment: Pre-emergence herbicidal activity on POROL (common purslane); type: in vivo, Portulaca oleracea; conditions: lowest tested rate giving 80% or greater inhibition, approx. 14 days after planting and treating, greenhouse
How it was run: as §6

CONAR [20] = experiment: Post-emergence herbicidal activity on CONAR (field bindweed); type: in vivo, Convolvulus arvensis; conditions: post-emergence spray; lowest tested rate with 80% or greater inhibition; about 14 days after treatment
From the text: as §1, §2, §3, §4, §5

SOLNI [21] = experiment: Pre-emergence herbicidal activity on SOLNI (black nightshade); type: in vivo, Solanum nigrum; conditions: lowest tested rate giving 80% or greater inhibition, approx. 14 days after planting and treating, greenhouse
How it was run: as §6

AMARE [22] = experiment: Post-emergence herbicidal activity on AMARE (redroot pigweed); type: in vivo, Amaranthus retroflexus; conditions: post-emergence spray; lowest tested rate with 80% or greater inhibition; about 14 days after treatment
From the text: as §1, §2, §3, §4, §5

AMARE [23] = experiment: Pre-emergence herbicidal activity on AMARE (redroot pigweed); type: in vivo, Amaranthus retroflexus; conditions: lowest tested rate giving 80% or greater inhibition, approx. 14 days after planting and treating, greenhouse
How it was run: as §6

CHEAL [24] = experiment: Post-emergence herbicidal activity on CHEAL (common lambsquarters); type: in vivo, Chenopodium album; conditions: post-emergence spray; lowest tested rate with 80% or greater inhibition; about 14 days after treatment
From the text: as §1, §2, §3, §4, §5

PANMI = experiment: Post-emergence herbicidal activity on PANMI (wild proso millet); type: in vivo, Panicum miliaceum; conditions: post-emergence spray; lowest tested rate with 80% or greater inhibition; about 14 days after treatment
ECHCG [25] = experiment: Pre-emergence herbicidal activity on ECHCG (barnyardgrass); type: in vivo, Echinochloa crus-galli; conditions: lowest tested rate giving 80% or greater inhibition, approx. 14 days after planting and treating, greenhouse
How it was run: as §6

SORHA [26] = experiment: Pre-emergence herbicidal activity on SORHA (johnsongrass, seedling); type: in vivo, Sorghum halepense; conditions: lowest tested rate giving 80% or greater inhibition, approx. 14 days after planting and treating, greenhouse
How it was run: as §6

CONAR [27] = experiment: Pre-emergence herbicidal activity on CONAR (field bindweed); type: in vivo, Convolvulus arvensis; conditions: lowest tested rate giving 80% or greater inhibition, approx. 14 days after planting and treating, greenhouse
How it was run: as §6

ABUTH [28] = experiment: Pre-emergence herbicidal activity on ABUTH (velvetleaf); type: in vivo, Abutilon theophrasti; conditions: lowest tested rate giving 80% or greater inhibition, approx. 14 days after planting and treating, greenhouse
How it was run: as §6

| Compound | Post-emergence activity (GR80) SORHA (SORHA [1]) | Post-emergence activity (GR80) SETFA (SETFA [2]) | Post-emergence activity (GR80) DATST (DATST [3]) | Post-emergence activity (GR80) CIRAR (CIRAR [4]) | Post-emergence activity (GR80) ABUTH (ABUTH [5]) | Pre-emergence activity (GR80) on PANDI (PANDI [6]) | Post-emergence activity (GR80) ECHCG (ECHCG [7]) | Post-emergence activity (GR80) PANDI (PANDI [8]) | Post-emergence activity (GR80) BRAPP (BRAPP [9]) | Pre-emergence activity (GR80) on CIRAR (CIRAR [10]) | Post-emergence activity (GR80) PORAL (POROL [11]) | Pre-emergence activity (GR80) on DIGSA (DIGSA [12]) | Post-emergence activity (GR80) DIGSA (DIGSA [13]) | Pre-emergence activity (GR80) on CHEAL (CHEAL [14]) | Post-emergence activity (GR80) SORVU (SORVU) | Pre-emergence activity (GR80) on DATST (DATST [15]) | Pre-emergence activity (GR80) on BRAPP (BRAPP [16]) | Post-emergence activity (GR80) SOLNI (SOLNI [17]) | Pre-emergence activity (GR80) on SETFA (SETFA [18]) | Pre-emergence activity (GR80) on PORAL (POROL [19]) | also measured |
| --- | --- | --- | --- | --- | --- | --- | --- | --- | --- | --- | --- | --- | --- | --- | --- | --- | --- | --- | --- | --- | --- |
| C[C@H](CNC(=O)c1cccc(C(F)(F)F)c1)NC(=O)Oc1ccc(Cl)cc1 [Example 231] | phyto | [empty] | * (Where herbicidal activity was evident but 80% inhibition was not achieved at the highest rate tested (typically 1000 g/ha), an asterisk (*) is shown) | [empty] | [empty] | phyto | [empty] | phyto | [empty] | phyto | phyto | 1000 g/ha | phyto | phyto | phyto | phyto | phyto | [empty] | phyto | phyto | Post-emergence activity (GR80) CONAR (CONAR [20]): phyto; Pre-emergence activity (GR80) on SOLNI (SOLNI [21]): phyto; Post-emergence activity (GR80) AMARE (AMARE [22]): phyto; Pre-emergence activity (GR80) on AMARE (AMARE [23]): 750 g/ha; Post-emergence activity (GR80) CHEAL (CHEAL [24]): phyto; Post-emergence activity (GR80) PANMI (PANMI): [empty] |
| CC(CNC(=O)c1cccc(C(F)(F)F)c1)NC(=O)c1cccc(I)c1 (centres unmarked) [Example 59] | [empty] | [empty] | phyto | phyto | phyto | phyto | [empty] | phyto | phyto | 1000 g/ha | [empty] | phyto | phyto | 500 g/ha | [empty] | 1000 g/ha | phyto | phyto | 1000 g/ha | 125 g/ha | Pre-emergence activity (GR80) on ECHCG (ECHCG [25]): phyto; Pre-emergence activity (GR80) on SORHA (SORHA [26]): phyto; Pre-emergence activity (GR80) on CONAR (CONAR [27]): phyto; Pre-emergence activity (GR80) on ABUTH (ABUTH [28]): phyto; Post-emergence activity (GR80) CONAR (CONAR [20]): phyto; Pre-emergence activity (GR80) on SOLNI (SOLNI [21]): phyto; Post-emergence activity (GR80) AMARE (AMARE [22]): * (Where herbicidal activity was evident but 80% inhibition was not achieved at the highest rate tested (typically 1000 g/ha), an asterisk (*) is shown); Pre-emergence activity (GR80) on AMARE (AMARE [23]): 250 g/ha; Post-emergence activity (GR80) CHEAL (CHEAL [24]): [empty]; Post-emergence activity (GR80) PANMI (PANMI): [empty] |
